How the values were obtained:
Assay type in all cases: cell-based
[1] = molecular target: T1, human TLR9 (Homo sapiens, UniProt Q9NR96); assay: TLR9 inhibition reporter assay (HEK-Blue cells, SEAP reporter, ODN2006 stimulation); settings: HEK-Blue cells overexpressing human TLR9, SEAP reporter, ODN2006 5 nM
T1 construct: host or cells: HEK-Blue cells
T1 sequence (Q9NR96 26-1032): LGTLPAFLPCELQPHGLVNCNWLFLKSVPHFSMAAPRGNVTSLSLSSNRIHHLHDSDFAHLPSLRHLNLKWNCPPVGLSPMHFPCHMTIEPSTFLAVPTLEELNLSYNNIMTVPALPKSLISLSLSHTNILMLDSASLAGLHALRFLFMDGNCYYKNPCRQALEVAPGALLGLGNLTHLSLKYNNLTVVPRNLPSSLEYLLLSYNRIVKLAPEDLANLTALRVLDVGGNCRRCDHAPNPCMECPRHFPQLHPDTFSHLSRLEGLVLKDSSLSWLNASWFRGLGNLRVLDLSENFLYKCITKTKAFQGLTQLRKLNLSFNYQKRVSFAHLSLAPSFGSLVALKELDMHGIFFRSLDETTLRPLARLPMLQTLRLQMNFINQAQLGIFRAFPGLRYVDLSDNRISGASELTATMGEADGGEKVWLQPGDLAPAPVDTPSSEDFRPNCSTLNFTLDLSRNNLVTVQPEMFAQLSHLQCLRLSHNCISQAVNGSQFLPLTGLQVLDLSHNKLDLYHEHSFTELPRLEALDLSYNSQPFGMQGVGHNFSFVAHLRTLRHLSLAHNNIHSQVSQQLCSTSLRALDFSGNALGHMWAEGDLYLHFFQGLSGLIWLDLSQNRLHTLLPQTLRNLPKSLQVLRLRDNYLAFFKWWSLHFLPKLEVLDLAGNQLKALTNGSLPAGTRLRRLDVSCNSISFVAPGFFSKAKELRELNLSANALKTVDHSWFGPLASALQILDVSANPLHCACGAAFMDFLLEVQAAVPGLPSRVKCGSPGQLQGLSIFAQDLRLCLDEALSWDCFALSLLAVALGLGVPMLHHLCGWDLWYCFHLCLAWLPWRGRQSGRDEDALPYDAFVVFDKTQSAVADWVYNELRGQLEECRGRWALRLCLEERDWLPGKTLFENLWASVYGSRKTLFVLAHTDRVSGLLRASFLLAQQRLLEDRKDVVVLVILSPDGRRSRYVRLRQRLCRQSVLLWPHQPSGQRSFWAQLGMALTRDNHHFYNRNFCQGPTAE
Summary of the method: (§1)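 30 min RT cpd pre-incubation (0.05 nM–50 μM final dose response) → agonist: gardiquimod 7.5 μM / R848 15.9 μM / ODN2006 5 nM for TLR7/8/9 resp. → 22 h, 37° C → SEAP via detection medium. % inhibition vs agonist+DMSO and reference inhibitor controls.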

[2] = molecular target: T2, human TLR8 (Homo sapiens, UniProt Q9NR97); assay: TLR8 inhibition reporter assay (HEK-Blue cells, SEAP reporter, R848 stimulation); settings: HEK-Blue cells overexpressing human TLR8, SEAP reporter, R848 15.9 μM
T2 construct: host or cells: HEK-Blue cells
T2 sequence (Q9NR97 27-1041): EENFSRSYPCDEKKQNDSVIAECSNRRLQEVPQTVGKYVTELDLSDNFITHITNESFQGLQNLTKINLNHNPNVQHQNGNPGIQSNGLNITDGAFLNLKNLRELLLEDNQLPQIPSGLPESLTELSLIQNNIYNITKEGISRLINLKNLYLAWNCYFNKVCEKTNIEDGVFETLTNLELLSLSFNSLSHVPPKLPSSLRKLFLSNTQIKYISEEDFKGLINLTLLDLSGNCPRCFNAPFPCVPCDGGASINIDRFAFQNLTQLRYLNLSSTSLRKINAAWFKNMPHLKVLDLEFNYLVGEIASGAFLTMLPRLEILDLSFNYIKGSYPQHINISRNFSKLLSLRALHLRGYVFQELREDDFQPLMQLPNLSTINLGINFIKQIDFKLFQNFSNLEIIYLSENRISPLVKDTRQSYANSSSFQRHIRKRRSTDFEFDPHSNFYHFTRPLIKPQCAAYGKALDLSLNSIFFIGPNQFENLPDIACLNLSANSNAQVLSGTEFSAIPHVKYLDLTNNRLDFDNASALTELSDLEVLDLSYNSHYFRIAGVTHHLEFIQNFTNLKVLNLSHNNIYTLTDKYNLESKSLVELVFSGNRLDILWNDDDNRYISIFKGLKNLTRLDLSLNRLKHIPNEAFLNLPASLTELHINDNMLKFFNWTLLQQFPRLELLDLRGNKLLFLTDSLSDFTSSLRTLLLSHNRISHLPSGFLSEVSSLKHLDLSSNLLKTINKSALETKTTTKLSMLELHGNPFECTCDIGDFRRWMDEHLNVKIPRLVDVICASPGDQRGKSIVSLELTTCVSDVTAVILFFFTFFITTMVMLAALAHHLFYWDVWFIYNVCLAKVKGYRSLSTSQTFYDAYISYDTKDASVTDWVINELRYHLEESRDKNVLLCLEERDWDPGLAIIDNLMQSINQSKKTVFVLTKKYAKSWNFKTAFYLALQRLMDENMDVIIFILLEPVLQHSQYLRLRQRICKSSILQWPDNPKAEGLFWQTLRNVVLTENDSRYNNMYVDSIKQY
Summary of the method: as §1

[3] = molecular target: T3, human TLR7 (Homo sapiens, UniProt Q9NYK1); assay: TLR7 inhibition reporter assay (HEK-Blue cells, SEAP reporter, gardiquimod stimulation); settings: HEK-Blue cells overexpressing human TLR7, SEAP reporter, gardiquimod 7.5 μM
T3 construct: host or cells: HEK-Blue cells
T3 sequence (Q9NYK1 27-1049): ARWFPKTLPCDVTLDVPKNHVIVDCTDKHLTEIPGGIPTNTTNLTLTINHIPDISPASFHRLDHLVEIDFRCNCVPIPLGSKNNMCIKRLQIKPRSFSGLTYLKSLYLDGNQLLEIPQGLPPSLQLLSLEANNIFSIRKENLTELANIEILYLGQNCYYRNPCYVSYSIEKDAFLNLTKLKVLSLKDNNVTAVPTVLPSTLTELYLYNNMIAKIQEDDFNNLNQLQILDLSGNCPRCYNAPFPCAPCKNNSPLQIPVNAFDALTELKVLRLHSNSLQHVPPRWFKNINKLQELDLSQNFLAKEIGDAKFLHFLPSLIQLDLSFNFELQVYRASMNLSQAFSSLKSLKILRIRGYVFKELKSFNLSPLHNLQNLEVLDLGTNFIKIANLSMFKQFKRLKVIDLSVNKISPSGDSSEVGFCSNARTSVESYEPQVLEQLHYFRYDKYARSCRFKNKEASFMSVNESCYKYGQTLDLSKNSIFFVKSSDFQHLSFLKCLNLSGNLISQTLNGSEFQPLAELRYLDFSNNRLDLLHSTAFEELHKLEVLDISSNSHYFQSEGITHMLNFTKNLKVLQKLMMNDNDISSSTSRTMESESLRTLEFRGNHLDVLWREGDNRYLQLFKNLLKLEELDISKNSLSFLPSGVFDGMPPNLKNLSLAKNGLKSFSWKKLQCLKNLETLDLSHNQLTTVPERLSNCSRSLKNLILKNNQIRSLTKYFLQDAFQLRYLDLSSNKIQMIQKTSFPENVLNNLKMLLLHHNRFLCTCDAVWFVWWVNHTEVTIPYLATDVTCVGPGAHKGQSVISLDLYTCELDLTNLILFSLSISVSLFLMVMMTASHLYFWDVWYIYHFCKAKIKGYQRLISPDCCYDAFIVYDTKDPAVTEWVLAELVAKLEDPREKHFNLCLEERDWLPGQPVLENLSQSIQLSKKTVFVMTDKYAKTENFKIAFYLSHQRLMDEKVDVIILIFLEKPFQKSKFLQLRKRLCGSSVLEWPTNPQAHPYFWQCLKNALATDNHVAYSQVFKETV
Summary of the method: as §1

IC50 [1] [nM] | IC50 [2] [nM] | IC50 [3] [nM] | Structure (SMILES)
37700 | 215 | 77.5 | Cc1cc(-c2[nH]nc(-c3ccc(N4CC(N(C)C)C4)cc3)c2C(C)C)cn2ncnc12 [Example 405, 1-(4-(4-isopropyl-5-(8-methyl-[1,2,4]triazolo[1,5-a]pyridin-6-yl)-1H-pyrazol-3-yl)phenyl)-N,N-dimethylazetidin-3-amine]
21700 | 0.12 | 8.11 | COc1cc(-c2[nH]nc(-c3ccc(C4CCN(C(C)C)CC4)cn3)c2C(C)C)cn2ncnc12 [Example 350]
5700 | 4.49 | 1.34 | Cc1cc(-c2[nH]nc(C(=O)N[C@H]3CC[C@H](N(CCC(C)C)CCC(C)C)CC3)c2C(C)C)cn2ncnc12 [Example 108]
> 50000 | 5.12 | 9.6 | Cc1cc(-c2[nH]nc(C3CCC(NCCN(C)C)CC3)c2C(C)C)cn2ncnc12 (single isomer, unassigned) [Example 284]
> 50000 | 12.7 | 39 | Cc1cc(-c2[nH]nc(-c3ccc(C4CCNCC4)nn3)c2C(C)C)cn2ncnc12 [Example 344]
4170 | 0.14 | 0.32 | Cc1cc(-c2[nH]nc(C3CCN(C(=O)CN(C)C)CC3)c2C(C)C)cn2ncnc12 [compound 209]
3560 | 25.5 | 8.31 | Cc1cc(-c2[nH]nc(C(=O)NC3CCN(C(C)C)CC3)c2C(C)C)cn(C)c1=O [Example 39]
4110 | 2.34 | 0.31 | Cc1cc(-c2[nH]nc(C(=O)N[C@H]3CC[C@@H](NCC4CCOCC4)CC3)c2C(C)C)cn2ncnc12 [Example 92]
> 50000 | 18.2 | 56.9 | COc1cc(-c2[nH]nc(-c3cnc(C4CCN(CC5CCC5)CC4)cn3)c2C(C)C)cn2ncnc12 [Example 377]
6310 | 0.49 | 4.29 | COc1cc(-c2[nH]nc(-c3ccc(C4CN(C(C)C)C4)cc3)c2C(C)C)cn2ncnc12 [Example 331]
21600 | 0.83 | 6.23 | COCCN1CCC(c2ccc(-c3n[nH]c(-c4cc(OC)c5ncnn5c4)c3C(C)C)cc2)CC1 [Example 318, 6-(4-isopropyl-3-(4-(1-(2-methoxyethyl)piperidin-4-yl)phenyl)-1H-pyrazol-5-yl)-8-methoxy-[1,2,4]triazolo[1,5-a]pyridine]
6400 | 114 | 78.9 | CCC(CC)N[C@H]1CC[C@@H](NC(=O)c2n[nH]c(-c3cc(C)c4ncnn4c3)c2C(C)C)CC1 [Example 100]
6280 | 2.55 | 4.31 | Cc1cc(-c2[nH]nc(-c3nc4c(s3)CN(C(=O)C[C@H](C)O)CC4)c2C(C)C)cn2ncnc12 [Example 269]
6520 | 5.07 | 11.5 | COc1cc(-c2[nH]nc(-c3cnc(C4CCN(C5CCOCC5)CC4)cn3)c2C(C)C)cn2ncnc12 [Example 380]
29800 | 2.1 | 16.4 | Cc1cc(-c2[nH]nc(-c3ccc(N(C)C)cc3)c2C(C)C)cn2ncnc12 [Example 243]
> 50000 | 1.72 | 3.71 | COc1cc(-c2[nH]nc(-c3ccc(C4CCN(C5CCOCC5)CC4)cc3)c2C(C)C)cn2ncnc12 [Example 313]
5400 | 25.9 | 5.8 | Cc1cc(-c2[nH]nc(C(=O)NC3CCN(C(C)C(C)C)CC3)c2C(C)C)cn2ncnc12 (stereo not drawn) [Example 125]
10900 | 32.6 | 7.48 | Cc1cc(-c2[nH]nc(C(=O)NC3CCC(NCC(C)(C)C)CC3)c2C(C)C)cn2ncnc12 (stereo not drawn) [Example 131]
1760 | 4.65 | 2.38 | CNCCN1CCC(NC(=O)c2n[nH]c(-c3cc(C)c4ncnn4c3)c2C(C)C)CC1 [Example 170]
> 50000 | 279 | 28.6 | Cc1cc(-c2[nH]nc(-c3cnc(N4CCNCC4)nc3)c2C(C)C)cn2ncnc12 [Example 407]
6730 | 40.8 | 3.4 | Cc1cc(-c2[nH]nc(C(=O)NCC3CN(CC4(C)COC4)CCO3)c2C(C)C)cn2ncnc12 (stereo not drawn) [Example 137]
17600 | 7.97 | 5.42 | CCCN1CC(c2ccc(-c3n[nH]c(-c4cc(C)c5ncnn5c4)c3C(C)C)cc2)C1 [Example 326]
9250 | 15.9 | 13.5 | CNC(=O)CN1CCC(c2cnc(-c3n[nH]c(-c4cc(OC)c5ncnn5c4)c3C(C)C)cn2)CC1 [Example 400]
> 50000 | 35.8 | 67.9 | Cc1cc(-c2[nH]nc(-c3nc4c(s3)CN(C(C)C)CC4)c2C(C)C)cn2ncnc12 [Example 252]
4280 | 12.7 | 0.96 | Cc1cc(-c2[nH]nc(C(=O)NC3CCN(CC4CC4)CC3)c2C(C)C)cn2ncnc12 [Example 73]

From patent US20230117470A1, “SUBSTITUTED PYRAZOLE COMPOUNDS AS TOLL RECEPTOR INHIBITORS” (BRISTOL-MYERS SQUIBB COMPANY, priority 2019, published 2023)
